US20120277265A1, “NOVEL POLYQUINOLINE DERIVATIVES AND THE THERAPEUTIC USE THEREOF” (CENTRE NATIONAL DE LA RECHERCHE SCIENTIFIQUE (C.N.R.S.), priority 2005, published 2012)
Read-outs that look alike come from different tables or passages of the source.

Experiments:
[1] = UV-visible spectrophotometric titration with ZnCl2 (metal/ligand stoichiometry); format: binding; conditions: 15 μM ligand; Tris-HCl buffer pH 7.4/organic solvent, per ligand as in Table 3 column Solvent
Procedure: An organic solvent (CH3OH, dioxane or DMSO) was added in order to achieve good solubility of the ligands and metal complexes in the concentrations used in these experiments. Exact proportions of the organic solvent/buffer mixture are specified for each UV-visible characterisation of the different ligands or metal complexes.
Aliquot portions of concentrated CuCl2 or ZnCl2 solutions (M) are added to a 15 μM ligand solution so as to induce only negligible variations in volume. After each addition, changes in absorption spectra are observed immediately and are consistent between two additions, which corresponds to a rapid complexing process. The exact absorption values relating to each ligand and the copper(II) or zinc(II) complexes thereof are detailed hereinafter in the Experimental part (in the Synthesis part for ligands and hereinafter for the metal complexes).
The stoichiometry of the different ligands (L) for Cu(II) or ZN(II) have therefore been determined spectrophotometrically by metal ion titration. In this example, for an M/L ratio increasing from 0 to 1, π→π* with transition, centred at 251 nm for the free ligand, is shifted to a lower energy with a concomitant appearance of an absorption band in the visible region of the spectrum (λmax to 383 nm), which is probably the result of an MLCT transition. For greater M/L ratios, no additional change in the UV-visible absorption spectra is observed.

[2] = Competition reaction between ligand (Ls), ZnCl2 and competing chelator (Lc), UV-visible; affinity constants; format: binding; conditions: for % MLs: Zn(II), EDTA as Lc, 1/1/1 at 15 μM
Procedure: An organic solvent (CH3OH, dioxane or DMSO) was added in order to achieve good solubility of all the ligands and metal complexes in the concentrations used in these experiments.
As the concentration [MLs]=x % of C is measured on the UV-visible spectra, the concentrations [Ls]=(1−x) % of C, [MLc]=(1−x) % of C and [Lc]=x % of C can be deduced therefrom and:
In these conditions, [MLs]=[MLc]; [MLs]+[Lc]=Y, y≧50 and:
When log Ks 6, these equations are not used since the percentages of metal ion which is free in the solution or chelated by the solvent or the buffer are not negligible.

[3] = target: T1, copper complexes of Aβ1-42 peptide (Homo sapiens, UniProt P05067); experiment: Stability of H2O2 during the H2O2 production inhibition experiments (known amount of H2O2 added); format: biochemical; conditions: Aβ1-42 0.2 μM, Cu(II) 0.4 μM, ascorbate 10 μM, ligand 0.4 μM
T1 construct: The β-amyloid peptide Aβ1-42 (Aβ1-42) was synthesised, purified (to a purity greater than 95%); made in house; host or cells: chemical peptide synthesis (no expression host)
Procedure: (§1) The final concentrations are given. The reactions were carried out in the dark in mM sodium phosphate buffer (pH=7.4). Aβ1-42 (0.2 μM) and CuCl2 (0.4 μM) were pre-incubated for 1 hour at 37° C. while stirring at 1,400 rpm in 375 μl of buffer. Then 2 μl of a solution of ligand to be investigated (0.2; 0.4 or 0.8 μM) in DMSO were added. After incubation for a further hour, 2 μl of an aqueous sodium ascorbate solution (10 μM) were added and incubation was continued for 5 min while stirring. The amount of H2O2 produced is then quantified using an Amplex Red H2O2/HRP Assay Kit (Molecular Probes) while adding a volume of assay reagent to the samples, then incubating them for 1 hour at 37° C. while stirring at 500 rpm. H2O2 is then detected by spectrophotometry at 563 nm. Quantification is carried out on the basis of standard curves obtained with known amounts of H2O2.
(§2) Experiments were also carried out in the presence of a known amount of H2O2, added just before or just after the addition of sodium ascorbate, in order to investigate the stability of H2O2 under the experimental conditions employed.

[4] = system: copper complexes of Aβ1-42 peptide; experiment: as above; format: biochemical; conditions: for theoretical value of H2O2 if there is no degradation (in parentheses): ascorbate, ligand; for H2O2 assayed: no Aβ1-42, Cu(II) 0.4 μM, ligand 0.4 μM
Procedure: as §1, §2

[5] = Determination of log D7.4 (1-octanol / Tris-HCl buffer); format: physicochemical; conditions: 1-octanol / 20 mM Tris-HCl buffer containing 150 mM NaCl (pH = 7.4) (1/1, v/v)
Summary of the method: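 Ligand partitioned between 1-octanol and 20 mM Tris-HCl pH 7.4 with 150 mM NaCl: vortexed 3 min at ambient temperature, centrifuged, each phase quantified by UV-visible spectrophotometry. log D7.4 is log of octanol/buffer concentration ratio, measured three times.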

[6] = system: Salmonella tiphimurium TA98; experiment: AMES test, TA98
Excerpt: (§3) AMES test: The method is adapted from D. M. Maron and B. N. Ames, Mutat.
(§4) The test involves evaluating the potential of the tested molecules to induce mutation which is reverse to the histidine locus of these lines. These two lines were provided by Dr. Bruce N. Ames (University of California, Berkeley, USA). They are resistant to Ampicillin and sensitive to Tetracycline. They are not mutant toward rfa, UvγV and UvγA. The line TA98 (his D3052) contains a mutation of reading phase (GC) whereas the line TA100 (his G46) contains a substitution of base pair (GC).
(§5) The compounds to be tested were dissolved in 100% of DMSO (the solvent) and diluted logarithmically (by a factor of 10) so as to obtain 4 test concentrations of 30,000; 3,000; 300 and 30 μg/ml. Each series of 0.1 ml of stock solution to be tested, 0.1 ml of test line and of culture medium with or without 0.5 ml of enzymatic homogenate (S9) of rat liver microsome were mixed with 2 ml of molten agarose (containing 0.5 mM of histidine and 0.5 mM of biotin). This mixture was placed on the surface of a plate of minimal agarose glucose medium (30 ml for each Petri dish) so as to obtain final concentrations of compound to be tested of 3,000; 300; 30 and 3 μγ/plate. The plates were then incubated at 37° C. for 48 hours. […] The revertant colonies of the test lines were counted using a colony counter (Sigma). […] A compound inducing a number of colonies <50% of cells obtained for the solvent alone was deemed to be toxic for the bacteria tested. All the experiments were carried out in triplicate.

[7] = system: Salmonella tiphimurium TA100; experiment: AMES test, TA100
Excerpt: as §3, §4, §5

[8] = Ls/ZnCl2/Lc 1/1/1 at 15 μM, solvent per ligand as in Table 3
[9] = 3.0 nanomoles H2O2 added just after ascorbate
[10] = Aβ1-42 0.2 μM, Cu(II), 3.0 nanomoles H2O2 added just after ascorbate
[11] = value per plate, Addition of S9: no
[12] = value per plate, Addition of S9: yes

T1 sequence (P05067 672-713 limits assumed, one chain of several): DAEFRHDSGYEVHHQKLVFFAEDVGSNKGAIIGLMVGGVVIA

Row | SMILES | Complex observed by titration with Zn^II (observed L/Zn(II) stoichiometry) [1] | percentage of ZnLs species at equilibrium, competing ligand EDTA [2, 8] [%] | H2O2 assayed [3, 9] | H2O2 assayed ([3]; no H2O2 added) [nmol] | theoretical value of H2O2 if there is no degradation (in parentheses) [4, 10] | log D7.4 [5] | logD at 3 min [5] | TA98 Cytotoxicity [6, 11] [µg] | TA98 Mutagenic effect [6, 11] [µg] | TA98 Cytotoxicity [6, 12] [µg] | TA98 Mutagenic effect [6, 12] [µg] | TA100 Cytotoxicity [7, 11] [µg] | TA100 Cytotoxicity [7, 12] [µg] | TA100 Mutagenic effect [7, 12] [µg] | further results
1 | O=C(c1ccc2cccc(O)c2n1)c1ccc2cccc(O)c2n1 [Compound 6, Bis(8-hydroxy-2-quinoline)methanone] | LZn^II(1/1) | 75 | 3.6 nmol | 0.87 ± 0.11 | 3.9 nmol | 3.9 ± 0.1 | – | – | – | – | – | – | – | – | –
2 | Oc1cccc2ccc(C(F)(F)c3ccc4cccc(O)c4n3)nc12 [Compound 5, 2,2′-(Difluoromethanediyl)-bis(8-hydroxyquinoline)] | LZn^II(1/1) | 55 | 3.4 nmol | 0.55 ± 0.08 | 3.5 nmol | – | 3.8 ± 0.1 | >3000 | >3000 | >3000 | >3000 | 300 | >3000 | >3000 | bactericidal effect ([7]; TA100 line in the absence of S9): ≥ 300 μg/plate
3 | CC(C)(c1ccc2c(Cl)ccc(O)c2n1)c1ccc2c(Cl)ccc(O)c2n1 [Compound 4, 2,2′-(2,2-Propanediyl)-bis(5-chloro-8-hydroxyquinoline)] | LZn^II(1/1) | 20 | 3.3 nmol | 0.37 ± 0.09 | 3.4 nmol | – | 4.9 ± 0.1 | – | – | – | – | – | – | – | –
4 | c1cnc2c(Nc3cccc4cccnc34)cccc2c1 [Compound 12, Bis(8-quinoline)amine] | LZn^II(1/1) | – | 1.7 nmol | 0.47 ± 0.09 | 3.4 nmol | 3.5 ± 0.1 | – | >3000 | – | >3000 | – | >3000 | >3000 | – | Log KZn^II ([2]; affinity constant at pH = 7.4, solvent per ligand as in Table 3 column Solvent, Equation 8 (a) or 7 (b)): ≈6; degradation of added H2O2 ([4]; Table 7 conditions): none of the added H2O2 is found again; TA98 Mutagenic effect [6]: >3000 µg; TA100 Mutagenic effect [7]: >3000 µg
5 | CC(C)(c1ccc2cccc(O)c2n1)c1ccc2cccc(O)c2n1 [Compound 3, 2,2′-(2,2-propanediyl)-bis(8-hydroxyquinoline)] | LZn^II(1/1) | 30 | 3.7 (3.7) nanomoles | 0.71 ± 0.02 | 3.7 (3.7) nanomoles | – | 4.4 ± 0.1 | >3000 | >3000 | >3000 | >3000 | >3000 | >3000 | >3000 | percentage of ZnLs species at equilibrium, competing ligand DTPA [2, 8]: 20%; percentage of ZnLs species at equilibrium, competing ligand EGTA [2, 8]: 100%; percentage of ZnLs species at equilibrium, competing ligand NTA [2, 8]: 100%; percentage of ZnLs species at equilibrium, competing ligand Trien [2, 8]: 100%; % MLs ([2]; Buffer/CH3OH (1/1)): 30%; % MLs ([2]; Buffer/DMSO (2/8)): 35%; % MLs ([2]; Buffer/dioxane (2/8)): 33%; % MLs ([2]; CH3OH): 40%; number of Lc equivalents making it possible to form 50% of ZnLs, Lc = EDTA ([2]; mixture of Ls (15 μM, 1 equivalent) and ZnCl2 (1/1, mol/mol)): 0.7 eq; H2O2 assayed ([3]; 3.0 nanomoles H2O2 added just before the ascorbate): 3.8 nmol; theoretical value of H2O2 if there is no degradation (in parentheses) ([4]; Aβ1-42 0.2 μM, Cu(II), 3.0 nanomoles H2O2 added just before the ascorbate): 3.7 nmol; H2O2 assayed ([4]; ascorbate 10 μM, 3.0 nanomoles H2O2 added just after ascorbate): 3.8 (3.8) nanomoles; H2O2 assayed ([4]; ascorbate 10 μM, no H2O2 added): 0.84 nmol; H2O2 assayed ([4]; no ascorbate, 3.0 nanomoles H2O2 added): 3.1 nmol; theoretical value of H2O2 if there is no degradation (in parentheses) ([4]; no Aβ1-42, Cu(II), 3.0 nanomoles H2O2 added just after ascorbate): 3.8 (3.8) nanomoles; TA100 Mutagenic effect [7, 11]: >3000 µg
